We go through eleven molecules from patent US8632792B2, “Cooling sensation agent composition and sensory stimulation agent composition” (Takasago International Corporation, priority 2008, dated 2014).

The subject of data set [1] is professional examiners. Kind of data set: Cooling treated towel (direct spraying), organoleptic ranking of cooling action. It is filed as in vivo. The conditions noted are these: for cooling action (in words), strength and consistency: comparison over 10 min to 24 hr, within the compound class. The text has this: 1% ethanol solution of each of di-1-menthyl carbonate, di-1-isopulegol carbonate, 1-menthyl-1-menthoxy ethyl carbonate, 1-menthyl-1-isopulegol carbonate, 1-menthoxypropanediol methylheptenone ketal, 1-menthoxypropanediol benzaldehyde acetal, 1-menthoxypropanediol-l-citronellal acetal, menthyl palmitate, menthyl stearate, menthyl isostearate, 1-menthol, and an equivalent-weight mixture of 1-menthyl-menthoxy ethyl carbonate, menthoxypropanediol citronellal acetal and menthyl isostearate was prepared. The solution was sprayed on a pure cotton hand towel (white plain towel made in Japan, 20 cm×20 cm, degrease-finished) in an amount of 1 g. After the towel was air-dried for 10 minutes, 3 hours, or 24 hours, the cooling action of each towel was determined organoleptically. Fifteen professional examiners with 5 years or more of experience are divided into three groups; different 5 kinds of samples were ranked from the strongest to weakest in action respectively by the examiners in three groups; and the result was shown by the sum of the ranking numbers.

For data set [2], the system named is internal bronchia. Kind of data set: Cooling towel (washing processed), organoleptic ranking of cooling action. The class given is in vivo. The conditions noted are these: for sum of the ranking numbers (cooling effect on treated hand towel after washing): 1% in base washing detergent, low sum = strong; for cooling action (in words), strength and durability: washing processed towel, comparison within the compound class. The source says:
(§1) Each of di-1-menthyl carbonate, di-1-isopulegol carbonate, 1-menthyl-1-menthoxy ethyl carbonate, 1-menthyl-1-isopulegol carbonate, 1-menthoxypropanediol benzaldehyde acetal, 1-menthoxypropanediol methylheptenone ketal, 1-menthoxypropanediol-1-citronellal acetal, menthyl palmitate, menthyl stearate, menthyl isostearate, 1-menthoxypropanediol, and an equivalent-weight mixture of 1-menthyl-menthoxy ethyl carbonate, menthoxypropanediol citronellal acetal and menthyl isostearate was compounded with a base washing detergent solution at a concentration of 1%.
(§2) A pure cotton hand towel (white plain towel made in Japan, 20 cm×20 cm, degrease-finished) was hand-washed for 3 minutes at a particular concentration (water: 10 L, detergent: 3 g, water temperature: 17° C.), then washed with the same amount of water for 2 minutes, squeezed lightly, and air-dried indoor for 6 hours. The hand towels prepared, the hand towels after 24 hours and the hand towels after 48 hours were brought into contact with the internal bronchia and the cooling action thereof was determined organoleptically. The determination was conducted as same as Example 1, that is, […] professional examiners are divided into three groups; different 5 kinds of samples were ranked from the strongest to weakest in action respectively by the examiners in three groups; and the result was shown by the sum of the ranking numbers.

Data set [3] in a line: Cooling towel (washing processed), organoleptic ranking of cooling action. The class given is in vivo. The conditions noted are these: after washing treatment and air drying for 6 hours.
Text: as §1, §2

Where [4] appears, read: Group C, air-dried 10 min, 1% ethanol solution, low sum = strong.
Where [5] appears, read: Group C, air-dried 3 hr, 1% ethanol solution, low sum = strong.
Setting [6] is: Group C, air-dried 24 hr, 1% ethanol solution, low sum = strong.
Setting [7] is: Group A, air-dried 10 min, 1 g of 1% ethanol solution sprayed on cotton towel, ranked strongest to weakest (low sum = strong).
[8] abbreviates: Group A, air-dried 3 hr, 1% ethanol solution, low sum = strong.
[9] abbreviates: Group A, air-dried 24 hr, 1% ethanol solution, low sum = strong.
Setting [10] is: Group B, air-dried 10 min, 1% ethanol solution, low sum = strong.
[11] abbreviates: Group B, air-dried 3 hr, 1% ethanol solution, low sum = strong.
Where [12] appears, read: Group B, air-dried 24 hr, 1% ethanol solution, low sum = strong.
The mark [13] stands for this setting: Group B, 24 hr (third time point).

For `CCCCCCCCCCCCCCCC(=O)OC1CC(C)CCC1C(C)C` (centres unmarked) [Menthyl palmitate, menthyl palmitate], the “sum of the ranking numbers (cooling effect on treated hand towel at direct spraying)” value in data set [1] (setting [4]) was found to be 15; in data set [1] (setting [5]), 17; in data set [1] (setting [6]) it was 17. Further, the “sum of the ranking numbers (cooling effect on treated hand towel after washing)” value in data set [2] (Group C, 6 hr) was 18; in data set [2] (Group C, 24 hr), 16; in data set [2] (Group C, 48 hr), 17.
`CC(C)[C@@H]1CC[C@@H](C)C[C@H]1OCCOC(=O)O[C@@H]1C[C@H](C)CC[C@H]1C(C)C` [l-Menthyl-l-menthoxy ethyl carbonate, 1-menthyl-1-menthoxy ethyl carbonate]: the “sum of the ranking numbers (cooling effect on treated hand towel at direct spraying)” value in data set [1] (setting [7]) is 10; in data set [1] (setting [8]), 5; in data set [1] (setting [9]), 5. For the same molecule, the “cooling action (in words), strength and consistency” value in data set [1] (direct spraying) was “superior both in initial strength and consistency”. In addition, the “sum of the ranking numbers (cooling effect on treated hand towel after washing)” value in data set [2] (Group A, 6 hr) stood at 8; in data set [2] (Group A, 24 hr), 7; in data set [2] (Group A, 48 hr), 7. For the same molecule, the “cooling action (in words), strength and durability” value in data set [2] is recorded as “strongest”.
Take `C=C(C)[C@@H]1CC[C@@H](C)C[C@H]1OC(=O)O[C@@H]1C[C@H](C)CC[C@H]1C(=C)C` [Di-l-isopulegol carbonate, di-1-isopulegol carbonate]: the melting point (commonly the temperature of the solid-liquid transition) fell in the range of 86 to 87 °C. In addition, the “sum of the ranking numbers (cooling effect on treated hand towel at direct spraying)” value in data set [1] (setting [7]) stood at 17. For the same molecule, the “sum of the ranking numbers (cooling effect on treated hand towel at direct spraying)” value in data set [1] (setting [8]) is recorded as 12. For the same molecule, in data set [1] (setting [9]), the “sum of the ranking numbers (cooling effect on treated hand towel at direct spraying)” value is 11. In addition, in data set [2] (Group A, 6 hr), the “sum of the ranking numbers (cooling effect on treated hand towel after washing)” value amounted to 14. The “sum of the ranking numbers (cooling effect on treated hand towel after washing)” value in data set [2] (Group A, 24 hr) worked out at 13. In data set [2] (Group A, 48 hr), the “sum of the ranking numbers (cooling effect on treated hand towel after washing)” value came to 14.
As to `C=C(C)[C@@H]1CC[C@@H](C)C[C@H]1OC(=O)O[C@@H]1C[C@H](C)CC[C@H]1C(C)C` [l-Menthyl-l-isopulegol carbonate, 1-menthyl-1-isopulegol carbonate], the entries for the “sum of the ranking numbers (cooling effect on treated hand towel at direct spraying)” value in data set [1] (setting [7]), in data set [1] (setting [8]) and in data set [1] (setting [9]) were 19, 1 and 14, respectively. Also, the “sum of the ranking numbers (cooling effect on treated hand towel after washing)” value in data set [2] (Group A, 6 hr) was found to be 12; in data set [2] (Group A, 24 hr), 12; in data set [2] (Group A, 48 hr), 11.
`CC(C)=CCCC1(C)OCC(CO[C@@H]2C[C@H](C)CC[C@H]2C(C)C)O1` (some centres unmarked) [1-menthoxypropanediol methylheptenone ketal]: the results for the “sum of the ranking numbers (cooling effect on treated hand towel at direct spraying)” value in data set [1] (setting [10]), in data set [1] (setting [11]) and in data set [1] (setting [12]) were 13, 6 and 6, respectively. The “cooling action (in words), strength and consistency” value in data set [1] (direct spraying) is listed as “strongest in action”. The “sum of the ranking numbers (cooling effect on treated hand towel after washing)” value in data set [2] (Group B, 6 hr) is listed as 10; in data set [2] (setting [13]), 10; in data set [2] (Group B, 24 hr), 11.
Turning to `CC(C)[C@@H]1CC[C@@H](C)C[C@H]1OC(=O)O[C@@H]1C[C@H](C)CC[C@H]1C(C)C` [Di-l-menthyl carbonate, di-1-menthyl carbonate], the “sum of the ranking numbers (cooling effect on treated hand towel at direct spraying)” value is given as 24 in data set [1] (setting [7]); 21 in data set [1] (setting [8]); 20 in data set [1] (setting [9]); 24 in data set [1] (setting [10]); 19 in data set [1] (setting [11]); 19 in data set [1] (setting [12]). The results for the “sum of the ranking numbers (cooling effect on treated hand towel at direct spraying)” value in data set [1] (setting [4]), in data set [1] (setting [5]) and in data set [1] (setting [6]) were 17, 21 and 21, respectively. Further, the “sum of the ranking numbers (cooling effect on treated hand towel after washing)” value is on record as 16 in data set [2] (Group A, 6 hr); 18 in data set [2] (Group A, 24 hr); 18 in data set [2] (Group A, 48 hr); 16 in data set [2] (Group B, 6 hr); 16 in data set [2] (setting [13]); 15 in data set [2] (Group B, 24 hr). Further, the “sum of the ranking numbers (cooling effect on treated hand towel after washing)” value amounted to 16 in data set [2] (Group C, 6 hr); 21 in data set [2] (Group C, 24 hr); 21 in data set [2] (Group C, 48 hr). In data set [2], the “cooling action (in words), strength and durability” value is on record as “weakest”.
For `CC(C)[C@@H]1CC[C@@H](C)C[C@H]1O` [l-Menthol, 1-menthol, reference compound], the “sum of the ranking numbers (cooling effect on treated hand towel at direct spraying)” value in data set [1] (setting [7]) was 5; in data set [1] (setting [8]) it was 24; in data set [1] (setting [9]), 25; in data set [1] (setting [10]), 5; in data set [1] (setting [11]) it was 25; in data set [1] (setting [12]), 25. Further, the “cooling action (in words)” value in data set [1] (direct spraying, after air drying for 10 minutes) is on record as “strongest cooling action”. Further, the “cooling action (in words), strength and consistency” value in data set [1] (direct spraying) is on record as “less consistent”. Also, the “sum of the ranking numbers (cooling effect on treated hand towel after washing)” value in data set [2] (Group A, 6 hr) worked out at 25; in data set [2] (Group A, 24 hr), 25; in data set [2] (Group A, 48 hr), 25; in data set [2] (Group B, 6 hr), 25; in data set [2] (setting [13]) it was 25; in data set [2] (Group B, 24 hr), 25.
As to `CCCCCCCCCCCCCCCCCC(=O)OC1CC(C)CCC1C(C)C` (centres unmarked) [Menthyl stearate, menthyl stearate], the “sum of the ranking numbers (cooling effect on treated hand towel at direct spraying)” value in data set [1] (setting [4]) turned out to be 21; in data set [1] (setting [5]), 15; in data set [1] (setting [6]), 17. In addition, the “sum of the ranking numbers (cooling effect on treated hand towel after washing)” value is 21 in data set [2] (Group C, 6 hr); 18 in data set [2] (Group C, 24 hr); 17 in data set [2] (Group C, 48 hr).
`CC1CCC(C(C)C)C(OCC(O)CO)C1` (centres unmarked) [1-menthoxypropanediol, reference compound]: the “cooling action (in words)” value in data set [3] is recorded as “did not have cooling action”.
Regarding `CC(C)=CCC[C@H](C)CC1OCC(CO[C@@H]2C[C@H](C)CC[C@H]2C(C)C)O1` (some centres unmarked) [1-menthoxypropanediol-1-citronellal acetal], the “sum of the ranking numbers (cooling effect on treated hand towel at direct spraying)” value in data set [1] (setting [10]) is recorded as 18; in data set [1] (setting [11]), 16; in data set [1] (setting [12]), 16. The “sum of the ranking numbers (cooling effect on treated hand towel after washing)” value amounted to 13 in data set [2] (Group B, 6 hr); 13 in data set [2] (setting [13]); 13 in data set [2] (Group B, 24 hr).
`CC(C)[C@@H]1CC[C@@H](C)C[C@H]1OCC1COC(c2ccccc2)O1` (some centres unmarked) [1-menthoxypropanediol benzaldehyde acetal]: the “sum of the ranking numbers (cooling effect on treated hand towel at direct spraying)” value in data set [1] (setting [10]) was 15; in data set [1] (setting [11]), 9; in data set [1] (setting [12]), 9. Further, the “sum of the ranking numbers (cooling effect on treated hand towel after washing)” value in data set [2] (Group B, 6 hr) worked out at 11; in data set [2] (setting [13]), 11; in data set [2] (Group B, 24 hr) it was 11.
